The nature of series [1]: Cannabis smoke/vapor passed through pure ethanol, cannabinoid profile (Example 1d). The settings on record: for relative concentration of cannabinoids (relative to total cannabinoid content), Vapor passed through ethanol: vapor at 210° C. Format: physicochemical. The protocol:
(§1) To show which cannabinoid compounds are solubilized in processes using BSA versus organic solvents, cannabis from two different batches was smoked and or vaporized. Vapor was formed using a “volcano” vaporizer at a temperature of 210° C. The smoke/vapor was passed through either a BSA/water/ethanol solution described in example 1b, comprising 33% by volume ethanol or through a pure ethanol (99% ethanol) solution. Solutions were stirred using a magnetic stirrer and were incubated for 48 hours, during which time, most of the ethanol evaporated. One of the batches of cannabis was high in THC, and the other batch of cannabis was high in both THC and CBD.

Series [2] has as its target T1, BSA (Bos taurus, UniProt P02769). Nature of the series: Cannabis smoke/vapor passed through BSA/water/ethanol solution, cannabinoid profile (Example 1d). Format: binding, bovine. The settings on record: 33% ethanol, 48 hours incubation, washed. The protocol:
as §1
The BSA/water/ethanol solution was washed after smoke or vapor was combined with it, and the amount of cannabinoids present was analyzed. The results of the comparison of relative concentration of cannabinoids (relative to total cannabinoid content) as expressed in percent (weight/weight), for a strain of cannabis high in THC are shown in the table below.

A further series has as its target albumin (BSA) (Bos taurus, UniProt P02769). Nature of the series: Ethanolic cannabinoid solution mixed with aqueous albumin, protein-bound cannabinoid quantified (Example 2b). Format: binding, bovine. The arrangement: protein-bound cannabinoid quantified, Vapor: unit not given beside the values. The settings on record: 100 microliters ethanolic solution + 500 microliters 5 mg/ml BSA, 30° C., 12 hours, non-adsorbed cannabinoids separated. The protocol: 100 microliters of ethanolic cannabinoid solution from cannabis vapor and cannabis smoke were each mixed with 500 microliters of aqueous albumin solution that had been prepared at a concentration of 5 mg albumin (BSA)/ml. The aqueous albumin solution combined with the ethanolic cannabinoid solution was incubated at 30° C. for 12 hours in open tubes. After 12 hours, the tubes were mixed and centrifuged, and non-adsorbed cannabinoids were separated from the solution. Concentrated protein-bound cannabinoid was dried and quantified as described below.

A short description of series [3]: Cannabinoid content of cannabis extract (Example 2a). The settings on record: methanol/chloroform 9:1 cannabis extract. Format: physicochemical. As to the method: (§2) Cannabis extract was prepared as follows: In short, cannabis plant matter is dried, ground and homogenized to form ground cannabis. The ground cannabis is extracted with methanol/chloroform (volume/volume ratio of 9:1). Sonication and filtration is then performed. Identity of cannabinoids is determined by HPLC by evaporation, dissolution in an appropriate solvent.
(§3) Drying of the cannabis plant matter occurs under high vacuum at about 37±2° C. for about 24 hours and then ground to form a fine powder. 200 mg of ground powder is combined with 10 ml of methanol/chloroform, and sonicated in an ice bath for 30 minutes at maximum power. The supernatant is then filtered through a 0.2 micron filter.
(§4) A sample of the cannabis extract was analyzed for content of cannabinoids. The cannabis extract was then combined with albumin solution having 20% ethanol at 10 mg/ml (BSA) and incubated for 2 hours at room temperature.

Series [4] addresses T1, BSA. As to the kind of experiment: Cannabis extract combined with albumin solution, cannabinoids adsorbed to BSA (Example 2a). Format: binding, bovine. The settings on record: albumin solution 10 mg/ml (BSA) with 20% ethanol, 2 hours at room temperature. The protocol: as §2, §3, §4
The conditions of series [5]: 3 g high THC strain; 200 ml ethanol concentrated to about 3 ml.
For another series, the target named is T2, ovalbumin (hen) (Gallus gallus, UniProt P01012).
T2 sequence (P01012 1-386): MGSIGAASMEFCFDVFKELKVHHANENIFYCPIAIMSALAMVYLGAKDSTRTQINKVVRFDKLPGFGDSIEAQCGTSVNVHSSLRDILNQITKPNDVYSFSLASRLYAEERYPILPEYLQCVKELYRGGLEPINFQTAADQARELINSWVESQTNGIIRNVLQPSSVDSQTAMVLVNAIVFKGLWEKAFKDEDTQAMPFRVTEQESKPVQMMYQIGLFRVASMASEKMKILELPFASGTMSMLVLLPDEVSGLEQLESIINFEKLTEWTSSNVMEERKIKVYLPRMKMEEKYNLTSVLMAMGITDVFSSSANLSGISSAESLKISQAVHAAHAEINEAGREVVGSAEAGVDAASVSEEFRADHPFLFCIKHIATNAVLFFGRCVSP
Nature of the series: Cannabis vapor streamed through protein solution, cannabinoids adsorbed (Example 1f). Format: binding. The settings on record: vapor of cannabis high in CBD; for percentage of each cannabinoid relative to total cannabinoids adsorbed to protein, Ovalbumin: 1 mg/ml protein, ethanol:water 1:2, 30° C., 24 hours. As to the method: (§5) The protein solutions were formed using ethanol and water in a 1:2 ratio. The solutions were incubated at 30° C. for 24 hours.

The target of series [6] is T3, rice recombinant human serum albumin (HSA) (Homo sapiens, UniProt P02768).
T3 construct: host or cells: rice (recombinant expression host)
The description is as above. Format: binding. The settings on record: vapor of cannabis high in CBD; 1 mg/ml protein, ethanol:water 1:2, 30° C., 24 hours. The protocol:
as §5

A further series has as its system bovine γ-globulin. The description is as above. Format: binding. The settings on record: vapor of cannabis high in CBD; 1 mg/ml protein, ethanol:water 1:2, 30° C., 24 hours. As to the method:
as §5

[7] abbreviates: strain of cannabis high in CBD and THC.

T1 sequence (P02769 25-607): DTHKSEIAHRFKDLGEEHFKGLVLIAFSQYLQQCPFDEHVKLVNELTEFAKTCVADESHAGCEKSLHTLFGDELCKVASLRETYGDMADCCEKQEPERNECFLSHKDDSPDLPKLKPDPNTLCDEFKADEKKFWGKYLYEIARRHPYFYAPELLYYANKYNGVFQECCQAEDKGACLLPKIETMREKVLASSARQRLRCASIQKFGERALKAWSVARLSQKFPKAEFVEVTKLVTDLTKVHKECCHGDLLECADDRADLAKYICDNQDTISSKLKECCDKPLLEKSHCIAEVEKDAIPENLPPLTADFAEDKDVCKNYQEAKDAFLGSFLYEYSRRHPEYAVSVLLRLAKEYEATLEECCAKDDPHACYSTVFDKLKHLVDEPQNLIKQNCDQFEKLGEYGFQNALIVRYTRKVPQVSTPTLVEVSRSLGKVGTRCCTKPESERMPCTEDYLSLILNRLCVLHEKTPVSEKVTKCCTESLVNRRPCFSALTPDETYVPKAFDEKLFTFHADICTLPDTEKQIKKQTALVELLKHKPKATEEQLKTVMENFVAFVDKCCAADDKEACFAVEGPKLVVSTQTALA
Chain of albumin (BSA) (P02769 25-607): as above
T3 sequence (P02768 25-609): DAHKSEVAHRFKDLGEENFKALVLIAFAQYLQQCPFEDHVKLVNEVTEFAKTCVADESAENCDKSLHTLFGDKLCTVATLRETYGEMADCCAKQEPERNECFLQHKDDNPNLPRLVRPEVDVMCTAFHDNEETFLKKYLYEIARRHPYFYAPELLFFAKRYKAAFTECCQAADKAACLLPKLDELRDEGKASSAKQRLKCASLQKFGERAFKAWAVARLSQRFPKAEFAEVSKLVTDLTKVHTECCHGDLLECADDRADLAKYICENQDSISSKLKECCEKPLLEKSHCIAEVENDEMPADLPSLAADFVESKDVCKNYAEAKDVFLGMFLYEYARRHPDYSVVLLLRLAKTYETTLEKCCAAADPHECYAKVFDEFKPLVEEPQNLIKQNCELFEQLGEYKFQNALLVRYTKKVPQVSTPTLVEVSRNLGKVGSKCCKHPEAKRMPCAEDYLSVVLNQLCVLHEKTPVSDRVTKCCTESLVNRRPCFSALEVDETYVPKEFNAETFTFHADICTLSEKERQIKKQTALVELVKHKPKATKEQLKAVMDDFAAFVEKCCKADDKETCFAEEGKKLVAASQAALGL

Turning to `CCCc1cc(O)c2c(c1)OC(C)(C)[C@@H]1CCC(C)=C[C@@H]21` [THCV, tetrahydrocannabivarin], the “relative concentration of cannabinoids (relative to total cannabinoid content), Smoke passed through ethanol” value in series [1] (setting [7]) and in series [1] (strain of cannabis high in THC) was 2.4 percent (weight/weight) in each case. In addition, the “relative concentration of cannabinoids (relative to total cannabinoid content), Vapor passed through ethanol” value is on record as 0.8 percent (weight/weight) in series [1] (setting [7]) and 0.7 percent (weight/weight) in series [1] (strain of cannabis high in THC). In addition, the “relative concentration of cannabinoids (relative to total cannabinoid content), Smoke passed through BSA/water/ethanol” value at BSA [2] (setting [7]) and at BSA [2] (strain of cannabis high in THC) was 0.0 percent (weight/weight) each time. In addition, on BSA [2] (setting [7]), the “relative concentration of cannabinoids (relative to total cannabinoid content), Vapor passed through BSA/water/ethanol” value is recorded as 0.0 percent (weight/weight).

With `CCCCCc1cc(O)c(C/C=C(\C)CCC=C(C)C)c(O)c1` [CBG, cannabigerol], on albumin (BSA), the “protein-bound cannabinoid quantified, Smoke” value is 5.9 and the “protein-bound cannabinoid quantified, Vapor” value was determined as 11.685. The “percentage of each cannabinoid relative to total cannabinoids, Extract” value in series [3] stood at 3 percentage. For the same molecule, in [1] (setting [7]), the “relative concentration of cannabinoids (relative to total cannabinoid content), Smoke passed through ethanol” value is 4.2 percent (weight/weight) and the “relative concentration of cannabinoids (relative to total cannabinoid content), Vapor passed through ethanol” value is listed as 1.5 percent (weight/weight). Moreover, in [1] (strain of cannabis high in THC), the “relative concentration of cannabinoids (relative to total cannabinoid content), Smoke passed through ethanol” value is listed as 4.9 percent (weight/weight) and the “relative concentration of cannabinoids (relative to total cannabinoid content), Vapor passed through ethanol” value is 1.2 percent (weight/weight). For the same molecule, on BSA [2] (setting [7]), the “relative concentration of cannabinoids (relative to total cannabinoid content), Smoke passed through BSA/water/ethanol” value is 0.0 percent (weight/weight) and the “relative concentration of cannabinoids (relative to total cannabinoid content), Vapor passed through BSA/water/ethanol” value was 0.0 percent (weight/weight). For the same molecule, the “relative concentration of cannabinoids (relative to total cannabinoid content), Smoke passed through BSA/water/ethanol” value at BSA [2] (strain of cannabis high in THC) is reported as 21.0 percent (weight/weight). Also, at BSA [4], the “percentage of each cannabinoid relative to total cannabinoids adsorbed to protein, Adsorbed to BSA after extract combined with BSA solution” value is 1 percentage. Also, in series [5], the “amount of cannabinoids dissolved in ethanol, Smoke” value (shortened to “amount … Smoke”) is 292.063 micrograms/ml and the “amount of cannabinoids dissolved in ethanol, Vapor” value (“amount … Vapor” below) came to 183.6224 micrograms/ml. Also, the “percentage of each cannabinoid relative to total cannabinoids adsorbed to protein, Ovalbumin” value on ovalbumin (hen) was 0 percentage. Moreover, in series [6], the “percentage of each cannabinoid relative to total cannabinoids adsorbed to protein, Rice recombinant HSA” value is listed as 0 percentage. Besides, in the series on bovine γ-globulin, the “percentage of each cannabinoid relative to total cannabinoids adsorbed to protein, Bovine γ-globulin” value turned out to be 0 percentage.

Take `CCCCCc1cc(O)c2c(c1)OC(C)(C)[C@@H]1CC=C(C)C[C@@H]21` [DELTA-8-THC]: at albumin (BSA), the “protein-bound cannabinoid quantified, Smoke” value came out at 0 and the “protein-bound cannabinoid quantified, Vapor” value is 4.6. Further, in [1] (setting [7]), the “relative concentration of cannabinoids (relative to total cannabinoid content), Smoke passed through ethanol” value was 0.0 percent (weight/weight) and the “relative concentration of cannabinoids (relative to total cannabinoid content), Vapor passed through ethanol” value is listed as 0.0 percent (weight/weight). In addition, in series [1] (strain of cannabis high in THC), the “relative concentration of cannabinoids (relative to total cannabinoid content), Smoke passed through ethanol” value is given as 0.0 percent (weight/weight) and the “relative concentration of cannabinoids (relative to total cannabinoid content), Vapor passed through ethanol” value was 0.0 percent (weight/weight). Besides, on BSA [2] (setting [7]), the “relative concentration of cannabinoids (relative to total cannabinoid content), Smoke passed through BSA/water/ethanol” value is listed as 0.0 percent (weight/weight) and the “relative concentration of cannabinoids (relative to total cannabinoid content), Vapor passed through BSA/water/ethanol” value is reported as 0.0 percent (weight/weight). The “relative concentration of cannabinoids (relative to total cannabinoid content), Smoke passed through BSA/water/ethanol” value at BSA [2] (strain of cannabis high in THC) was 0.0 percent (weight/weight). Moreover, in series [5], the “amount … Smoke” value was 0 micrograms/ml and the “amount … Vapor” value is on record as 0 micrograms/ml.

Turning to `C=C(C)[C@@H]1CCC(C)=C[C@H]1c1c(O)cc(CCCCC)c(C(=O)O)c1O` [CBDA, cannabidiolic acid], at albumin (BSA), the “protein-bound cannabinoid quantified, Smoke” value is on record as 0 and the “protein-bound cannabinoid quantified, Vapor” value is on record as 0. Moreover, in series [3], the “percentage of each cannabinoid relative to total cannabinoids, Extract” value amounted to 1 percentage. For the same molecule, in series [1] (setting [7]), the “relative concentration of cannabinoids (relative to total cannabinoid content), Smoke passed through ethanol” value is given as 2.3 percent (weight/weight) and the “relative concentration of cannabinoids (relative to total cannabinoid content), Vapor passed through ethanol” value is 1.6 percent (weight/weight). Besides, in series [1] (strain of cannabis high in THC), the “relative concentration of cannabinoids (relative to total cannabinoid content), Smoke passed through ethanol” value is on record as 0.9 percent (weight/weight) and the “relative concentration of cannabinoids (relative to total cannabinoid content), Vapor passed through ethanol” value is reported as 0.4 percent (weight/weight). Moreover, on BSA [2] (setting [7]), the “relative concentration of cannabinoids (relative to total cannabinoid content), Smoke passed through BSA/water/ethanol” value is listed as 39.8 percent (weight/weight) and the “relative concentration of cannabinoids (relative to total cannabinoid content), Vapor passed through BSA/water/ethanol” value was 23.6 percent (weight/weight). In addition, the “relative concentration of cannabinoids (relative to total cannabinoid content), Smoke passed through BSA/water/ethanol” value on BSA [2] (strain of cannabis high in THC) was 0.0 percent (weight/weight). Further, the “percentage of each cannabinoid relative to total cannabinoids adsorbed to protein, Adsorbed to BSA after extract combined with BSA solution” value on BSA [4] is listed as 0 percentage. For the same molecule, in series [5], the “amount … Smoke” value is listed as 0 micrograms/ml and the “amount … Vapor” value was 3.1218 micrograms/ml. Further, the “percentage of each cannabinoid relative to total cannabinoids adsorbed to protein, Ovalbumin” value on ovalbumin (hen) came out at 2.4 percentage. For the same molecule, the “percentage of each cannabinoid relative to total cannabinoids adsorbed to protein, Rice recombinant HSA” value in series [6] was 46 percentage. The “percentage of each cannabinoid relative to total cannabinoids adsorbed to protein, Bovine γ-globulin” value in the series on bovine γ-globulin amounted to 0 percentage.

B1: ovalbumin: ovalbumin (hen) (protein, UniProt P01012 2-386, looked up)
Ovalbumin: GSIGAASMEFCFDVFKELKVHHANENIFYCPIAIMSALAMVYLGAKDSTRTQINKVVRFDKLPGFGDSIEAQCGTSVNVHSSLRDILNQITKPNDVYSFSLASRLYAEERYPILPEYLQCVKELYRGGLEPINFQTAADQARELINSWVESQTNGIIRNVLQPSSVDSQTAMVLVNAIVFKGLWEKAFKDEDTQAMPFRVTEQESKPVQMMYQIGLFRVASMASEKMKILELPFASGTMSMLVLLPDEVSGLEQLESIINFEKLTEWTSSNVMEERKIKVYLPRMKMEEKYNLTSVLMAMGITDVFSSSANLSGISSAESLKISQAVHAAHAEINEAGREVVGSAEAGVDAASVSEEFRADHPFLFCIKHIATNAVLFFGRCVSP
B1: in the series with ovalbumin (hen) (1 mg/ml ovalbumin), the “cannabinoid adsorbed per mg of protein” value was “about 4 micrograms of cannabinoid per mg of protein”.

The values are drawn from patent US12161723B2, “Water-based cannabinoid and opioid compositions” (DAY THREE LABS MAN[…]., priority 2014, dated 2024).
